Reference: publication PMC4522657, “Identification of a DYRK1A Inhibitor that Induces Degradation of the Target Kinase using Co-chaperone CDC37 fused with Luciferase nanoKAZ” (Scientific Reports, 2015)

What was measured:
Experiment in all cases: Kinase panel, CaNDY 1 µM
Type in all cases: biochemical
Conditions in all cases: CaNDY 1 µM relative to DMSO
[1] = biological target: T1, EPHA4 (Homo sapiens, UniProt P54764)
T1 construct: purchased Carna Biosciences
How it was run: (§1)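 GST-tagged (N-term) full-length human kinases, baculovirus-expressed; 1% DMSO final; 1 h, RT; mobility shift; % inhibition vs no-inhibitor control from P/(P+S).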

[2] = biological target: T2, NDR1 (Homo sapiens, UniProt Q15208)
T2 construct: purchased Carna Biosciences
How it was run: as §1

[3] = biological target: T3, PKACβ (Homo sapiens, UniProt P22694)
T3 construct: purchased Carna Biosciences
How it was run: as §1

[4] = biological target: T4, CK1α (Homo sapiens, UniProt P48729)
T4 construct: purchased Carna Biosciences
How it was run: as §1

[5] = biological target: T5, CHK1 (Homo sapiens, UniProt O14757)
T5 construct: purchased Carna Biosciences
How it was run: as §1

[6] = biological target: T6, PKD2 (Homo sapiens, UniProt Q9BZL6)
T6 construct: purchased Carna Biosciences
How it was run: as §1

[7] = biological target: T7, IGF1R (Homo sapiens, UniProt P08069)
T7 construct: purchased Carna Biosciences
How it was run: as §1

[8] = biological target: T8, NEK7 (Homo sapiens, UniProt Q8TDX7)
T8 construct: purchased Carna Biosciences
How it was run: as §1

[9] = biological target: T9, PKN1 (Homo sapiens, UniProt Q16512)
T9 construct: purchased Carna Biosciences
How it was run: as §1

[10] = biological target: T10, PDGFRα (Homo sapiens, UniProt P16234)
T10 construct: purchased Carna Biosciences
How it was run: as §1

[11] = biological target: T11, MAPKAPK5 (Homo sapiens, UniProt Q8IW41)
T11 construct: purchased Carna Biosciences
How it was run: as §1

[12] = biological target: T12, CK1ε (Homo sapiens, UniProt P49674)
T12 construct: purchased Carna Biosciences
How it was run: as §1

[13] = biological target: T13, SGK (Homo sapiens, UniProt O00141)
T13 construct: purchased Carna Biosciences
How it was run: as §1

[14] = biological target: T14, WNK1 (Homo sapiens, UniProt Q9H4A3)
T14 construct: purchased Carna Biosciences
How it was run: as §1

[15] = biological target: T15, RET(Y791F) (Homo sapiens, UniProt P07949, Y791F)
T15 construct: purchased Carna Biosciences
How it was run: as §1

[16] = biological target: T16, SPHK1 (Homo sapiens, UniProt Q9NYA1)
T16 construct: purchased Carna Biosciences
How it was run: as §1

[17] = biological target: T17, EPHB1 (Homo sapiens, UniProt P54762)
T17 construct: purchased Carna Biosciences
How it was run: as §1

[18] = biological target: T18, CK1γ3 (Homo sapiens, UniProt Q9Y6M4)
T18 construct: purchased Carna Biosciences
How it was run: as §1

[19] = biological target: T19, MAP3K3_Cascade (Homo sapiens, UniProt Q99759)
T19 construct: purchased Carna Biosciences
How it was run: as §1

[20] = biological target: T20, MINK (Homo sapiens, UniProt Q8N4C8)
T20 construct: purchased Carna Biosciences
How it was run: as §1

[21] = biological target: T21, EEF2K (Homo sapiens, UniProt O00418)
T21 construct: purchased Carna Biosciences
How it was run: as §1

[22] = biological target: T22, NuaK1 (Homo sapiens, UniProt O60285)
T22 construct: purchased Carna Biosciences
How it was run: as §1

[23] = biological target: T23, MELK (Homo sapiens, UniProt Q14680)
T23 construct: purchased Carna Biosciences
How it was run: as §1

[24] = biological target: T24, MARK2 (Homo sapiens, UniProt Q7KZI7)
T24 construct: purchased Carna Biosciences
How it was run: as §1

[25] = biological target: T25, LATS2 (Homo sapiens, UniProt Q9NRM7)
T25 construct: purchased Carna Biosciences
How it was run: as §1

[26] = biological target: T26, CK1δ (Homo sapiens, UniProt P48730)
T26 construct: purchased Carna Biosciences
How it was run: as §1

[27] = biological target: T27, ABL(T315I) (Homo sapiens, UniProt P00519, T315I)
T27 construct: purchased Carna Biosciences
How it was run: as §1

[28] = biological target: T28, MARK4 (Homo sapiens, UniProt Q96L34)
T28 construct: purchased Carna Biosciences
How it was run: as §1

[29] = biological target: T29, BRAF(V600E)_Cascade (Homo sapiens, UniProt P15056, V600E)
T29 construct: purchased Carna Biosciences
How it was run: as §1

[30] = biological target: T30, DAPK1 (Homo sapiens, UniProt P53355)
T30 construct: purchased Carna Biosciences
How it was run: as §1

[31] = biological target: T31, MSK2 (Homo sapiens, UniProt O75676)
T31 construct: purchased Carna Biosciences
How it was run: as §1

[32] = biological target: T32, MET (Homo sapiens, UniProt P08581)
T32 construct: purchased Carna Biosciences
How it was run: as §1

[33] = biological target: T33, PIM3 (Homo sapiens, UniProt Q86V86)
T33 construct: purchased Carna Biosciences
How it was run: as §1

[34] = biological target: T34, TSSK1 (Homo sapiens, UniProt Q9BXA7)
T34 construct: purchased Carna Biosciences
How it was run: as §1

[35] = biological target: T35, JNK2 (Homo sapiens, UniProt P45984)
T35 construct: purchased Carna Biosciences
How it was run: as §1

[36] = biological target: T36, TEC (Homo sapiens, UniProt P42680)
T36 construct: purchased Carna Biosciences
How it was run: as §1

T18 sequence (Q9Y6M4 whole entry): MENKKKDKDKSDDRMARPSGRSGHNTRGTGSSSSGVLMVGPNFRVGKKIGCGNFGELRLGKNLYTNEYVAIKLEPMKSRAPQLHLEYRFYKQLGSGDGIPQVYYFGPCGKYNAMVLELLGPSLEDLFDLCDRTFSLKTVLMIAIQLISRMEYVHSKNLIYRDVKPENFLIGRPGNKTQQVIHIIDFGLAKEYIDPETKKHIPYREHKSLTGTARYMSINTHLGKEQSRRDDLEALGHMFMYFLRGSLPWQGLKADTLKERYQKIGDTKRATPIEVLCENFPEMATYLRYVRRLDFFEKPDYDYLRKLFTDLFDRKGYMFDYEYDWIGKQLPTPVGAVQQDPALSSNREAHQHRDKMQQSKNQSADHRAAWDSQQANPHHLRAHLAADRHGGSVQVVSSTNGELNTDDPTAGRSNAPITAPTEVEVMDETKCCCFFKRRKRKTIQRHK
T22 sequence (O60285 whole entry): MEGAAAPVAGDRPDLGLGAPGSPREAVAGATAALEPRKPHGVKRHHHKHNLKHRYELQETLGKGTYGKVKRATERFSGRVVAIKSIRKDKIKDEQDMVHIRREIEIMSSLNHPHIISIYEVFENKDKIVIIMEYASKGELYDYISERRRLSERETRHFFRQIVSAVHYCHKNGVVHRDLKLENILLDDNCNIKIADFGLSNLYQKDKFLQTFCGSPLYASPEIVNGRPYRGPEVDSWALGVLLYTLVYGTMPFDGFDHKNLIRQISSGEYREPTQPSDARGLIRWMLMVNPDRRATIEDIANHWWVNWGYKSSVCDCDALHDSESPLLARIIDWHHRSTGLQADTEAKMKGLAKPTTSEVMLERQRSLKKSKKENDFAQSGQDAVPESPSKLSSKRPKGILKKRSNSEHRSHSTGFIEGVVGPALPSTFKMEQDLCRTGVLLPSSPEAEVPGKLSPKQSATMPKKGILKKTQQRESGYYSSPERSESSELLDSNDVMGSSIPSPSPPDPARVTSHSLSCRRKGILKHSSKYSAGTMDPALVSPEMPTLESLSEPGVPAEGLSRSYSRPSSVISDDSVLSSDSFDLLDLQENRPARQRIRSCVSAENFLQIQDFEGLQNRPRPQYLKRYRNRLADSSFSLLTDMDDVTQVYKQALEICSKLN
T34 sequence (Q9BXA7 whole entry): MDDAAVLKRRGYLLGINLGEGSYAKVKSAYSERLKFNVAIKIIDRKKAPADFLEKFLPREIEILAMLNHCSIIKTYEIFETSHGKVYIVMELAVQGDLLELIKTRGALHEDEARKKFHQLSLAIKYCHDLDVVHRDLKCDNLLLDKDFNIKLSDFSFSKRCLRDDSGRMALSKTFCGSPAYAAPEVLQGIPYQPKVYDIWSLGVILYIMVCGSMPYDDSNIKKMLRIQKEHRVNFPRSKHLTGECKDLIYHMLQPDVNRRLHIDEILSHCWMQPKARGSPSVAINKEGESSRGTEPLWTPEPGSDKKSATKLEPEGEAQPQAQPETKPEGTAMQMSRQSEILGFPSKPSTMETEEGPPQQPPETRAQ
T5 sequence (O14757 whole entry): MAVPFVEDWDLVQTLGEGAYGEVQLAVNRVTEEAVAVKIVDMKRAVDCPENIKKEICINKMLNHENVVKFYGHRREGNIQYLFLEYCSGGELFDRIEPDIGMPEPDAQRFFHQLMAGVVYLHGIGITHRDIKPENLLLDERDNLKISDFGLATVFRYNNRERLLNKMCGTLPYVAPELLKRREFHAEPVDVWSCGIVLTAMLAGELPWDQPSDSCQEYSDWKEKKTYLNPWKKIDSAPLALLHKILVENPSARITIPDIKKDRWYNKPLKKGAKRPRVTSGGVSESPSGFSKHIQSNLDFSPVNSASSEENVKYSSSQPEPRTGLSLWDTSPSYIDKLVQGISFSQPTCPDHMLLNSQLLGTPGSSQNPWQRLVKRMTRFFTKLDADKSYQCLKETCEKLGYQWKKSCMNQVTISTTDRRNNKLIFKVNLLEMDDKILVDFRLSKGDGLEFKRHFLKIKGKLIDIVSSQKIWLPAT
T25 sequence (Q9NRM7 whole entry): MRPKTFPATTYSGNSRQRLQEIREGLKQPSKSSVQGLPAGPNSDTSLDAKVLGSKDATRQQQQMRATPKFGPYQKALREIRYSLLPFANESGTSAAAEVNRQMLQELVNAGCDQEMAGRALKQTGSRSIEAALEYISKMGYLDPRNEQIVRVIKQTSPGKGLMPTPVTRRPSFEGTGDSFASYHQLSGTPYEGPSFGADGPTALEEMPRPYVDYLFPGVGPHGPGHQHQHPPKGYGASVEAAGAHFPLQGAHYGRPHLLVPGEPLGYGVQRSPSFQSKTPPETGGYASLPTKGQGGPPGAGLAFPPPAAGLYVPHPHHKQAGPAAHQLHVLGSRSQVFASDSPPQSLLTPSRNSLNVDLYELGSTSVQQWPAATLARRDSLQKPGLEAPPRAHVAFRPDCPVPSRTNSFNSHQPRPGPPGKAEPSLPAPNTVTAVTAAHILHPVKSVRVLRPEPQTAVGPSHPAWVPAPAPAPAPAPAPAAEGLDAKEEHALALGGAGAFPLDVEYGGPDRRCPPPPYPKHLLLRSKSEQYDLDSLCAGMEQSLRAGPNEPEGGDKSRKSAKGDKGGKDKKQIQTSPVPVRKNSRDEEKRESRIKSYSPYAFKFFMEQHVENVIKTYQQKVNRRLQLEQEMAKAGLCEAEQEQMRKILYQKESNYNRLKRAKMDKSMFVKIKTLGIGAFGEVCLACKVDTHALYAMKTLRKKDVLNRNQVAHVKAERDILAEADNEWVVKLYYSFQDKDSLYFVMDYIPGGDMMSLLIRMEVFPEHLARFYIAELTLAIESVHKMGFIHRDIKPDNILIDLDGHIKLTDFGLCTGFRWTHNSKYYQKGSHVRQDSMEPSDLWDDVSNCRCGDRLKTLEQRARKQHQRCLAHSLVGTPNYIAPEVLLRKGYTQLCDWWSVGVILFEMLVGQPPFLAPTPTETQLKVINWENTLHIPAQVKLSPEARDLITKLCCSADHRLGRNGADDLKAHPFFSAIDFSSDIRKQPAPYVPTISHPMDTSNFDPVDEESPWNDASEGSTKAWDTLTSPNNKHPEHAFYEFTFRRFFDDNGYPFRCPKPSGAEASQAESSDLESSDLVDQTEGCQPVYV
T31 sequence (O75676 whole entry): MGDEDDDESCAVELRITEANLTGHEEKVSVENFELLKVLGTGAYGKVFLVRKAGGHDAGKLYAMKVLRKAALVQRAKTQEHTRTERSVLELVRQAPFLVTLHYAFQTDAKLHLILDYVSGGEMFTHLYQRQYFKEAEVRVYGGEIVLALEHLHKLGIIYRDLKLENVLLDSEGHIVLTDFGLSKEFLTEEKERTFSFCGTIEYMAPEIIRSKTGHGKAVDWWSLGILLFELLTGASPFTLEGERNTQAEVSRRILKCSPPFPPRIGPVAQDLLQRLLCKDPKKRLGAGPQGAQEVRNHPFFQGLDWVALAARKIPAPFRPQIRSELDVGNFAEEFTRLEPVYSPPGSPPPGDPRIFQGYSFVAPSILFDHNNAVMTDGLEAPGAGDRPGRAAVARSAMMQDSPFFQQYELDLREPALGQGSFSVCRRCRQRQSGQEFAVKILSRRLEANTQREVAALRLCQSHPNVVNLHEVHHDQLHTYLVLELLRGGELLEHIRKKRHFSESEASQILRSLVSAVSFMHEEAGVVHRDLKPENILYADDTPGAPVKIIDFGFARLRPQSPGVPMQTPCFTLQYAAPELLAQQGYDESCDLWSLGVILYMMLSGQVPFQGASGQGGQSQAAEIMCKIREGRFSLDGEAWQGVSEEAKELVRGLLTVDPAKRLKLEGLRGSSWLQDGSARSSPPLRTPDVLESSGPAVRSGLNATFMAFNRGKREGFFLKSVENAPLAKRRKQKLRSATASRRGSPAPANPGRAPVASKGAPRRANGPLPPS
T4 sequence (P48729 whole entry): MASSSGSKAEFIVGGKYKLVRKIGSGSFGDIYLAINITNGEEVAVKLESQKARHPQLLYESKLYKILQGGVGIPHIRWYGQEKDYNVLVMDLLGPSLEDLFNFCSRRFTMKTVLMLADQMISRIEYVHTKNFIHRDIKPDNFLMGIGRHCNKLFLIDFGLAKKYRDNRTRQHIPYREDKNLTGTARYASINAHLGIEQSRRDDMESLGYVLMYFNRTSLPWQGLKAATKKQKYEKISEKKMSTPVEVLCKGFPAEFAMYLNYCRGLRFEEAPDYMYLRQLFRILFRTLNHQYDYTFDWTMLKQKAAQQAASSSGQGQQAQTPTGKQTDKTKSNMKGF
T2 sequence (Q15208 whole entry): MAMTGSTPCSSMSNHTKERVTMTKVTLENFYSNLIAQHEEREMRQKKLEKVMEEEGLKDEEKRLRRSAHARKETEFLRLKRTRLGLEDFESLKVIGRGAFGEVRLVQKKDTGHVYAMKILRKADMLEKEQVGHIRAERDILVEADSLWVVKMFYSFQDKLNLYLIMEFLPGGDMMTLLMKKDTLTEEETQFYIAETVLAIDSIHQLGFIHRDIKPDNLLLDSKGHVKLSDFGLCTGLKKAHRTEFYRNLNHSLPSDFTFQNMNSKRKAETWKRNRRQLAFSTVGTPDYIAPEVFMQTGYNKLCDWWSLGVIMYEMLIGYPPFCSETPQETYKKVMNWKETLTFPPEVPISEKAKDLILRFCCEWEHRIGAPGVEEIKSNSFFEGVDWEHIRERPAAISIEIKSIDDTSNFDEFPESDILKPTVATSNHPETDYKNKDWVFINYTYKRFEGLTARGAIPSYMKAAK
T16 sequence (Q9NYA1 whole entry): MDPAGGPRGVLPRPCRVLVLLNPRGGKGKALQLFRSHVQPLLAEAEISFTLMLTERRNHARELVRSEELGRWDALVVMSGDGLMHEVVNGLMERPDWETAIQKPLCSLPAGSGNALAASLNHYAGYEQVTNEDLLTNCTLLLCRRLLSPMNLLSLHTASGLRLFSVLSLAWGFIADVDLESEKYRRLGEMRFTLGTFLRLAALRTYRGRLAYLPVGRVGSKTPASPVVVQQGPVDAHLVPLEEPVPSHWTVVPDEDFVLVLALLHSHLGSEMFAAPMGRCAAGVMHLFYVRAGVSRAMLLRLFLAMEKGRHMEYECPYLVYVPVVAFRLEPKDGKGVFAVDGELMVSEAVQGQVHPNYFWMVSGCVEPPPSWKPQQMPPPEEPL

[H]/N=C1/NC(=O)C(=Cc2ccc3c(c2)CCO3)S1 [CaNDY, (Z)-5-[(2,3-dihydrobenzofuran-5-yl)methylene]-2-iminothiazolidin-4-one]
remaining activity at 1 µM [1]: 102%
remaining activity at 1 µM [2]: 91.8%
remaining activity at 1 µM [3]: 92.5%
remaining activity at 1 µM [4]: 73.6%
%Activity [5]: 93.5%
remaining activity at 1 µM [6]: 83.3%
remaining activity at 1 µM [7]: 101%
remaining activity at 1 µM [8]: 102%
remaining activity at 1 µM [9]: 74.6%
remaining activity at 1 µM [10]: 84.1%
remaining activity at 1 µM [11]: 95.5%
remaining activity at 1 µM [12]: 89.4%
remaining activity at 1 µM [13]: 93.6%
%Activity [14]: 98.8%
remaining activity at 1 µM [15]: 100%
remaining activity at 1 µM [16]: 83.5%
remaining activity at 1 µM [17]: 95.3%
%Activity [18]: 79.0%
remaining activity at 1 µM [19]: 104%
remaining activity at 1 µM [20]: 83.7%
remaining activity at 1 µM [21]: 97.2%
%Activity [22]: 98.1%
remaining activity at 1 µM [23]: 91.5%
remaining activity at 1 µM [24]: 97.5%
%Activity [25]: 98.1%
remaining activity at 1 µM [26]: 67.9%
remaining activity at 1 µM [27]: 97%
%Activity [28]: 94.3%
remaining activity at 1 µM [29]: 105%
remaining activity at 1 µM [30]: 80.6%
remaining activity at 1 µM [31]: 98.3%
%Activity [32]: 97.7%
remaining activity at 1 µM [33]: 41.4%
remaining activity at 1 µM [34]: 94.5%
%Activity [35]: 102.6%
remaining activity at 1 µM [36]: 103%
